The results in this text go back to patent US20260374739A1, “SMALL MOLECULAR WEIGHT CHEMICAL COMPOUND TO ANTAGONIZE EPH-EPHRIN TETRAMERIZATION AND INHIBIT BIDIRECTIONAL SIGNALING” (THE BOARD OF REGENTS OF THE UNIVERSITY OF TEXAS SYSTEM, priority 2022, published 2026).

One experiment concerns the target T1, EphB2-Fc with EB2-His (Mus musculus, UniProt P54763).
T1 construct: soluble EphB ectodomains conjugated to Fc from R&D Systems; mouse EB2-His residues 18-232; purchased R&D Systems (EphB-Fc); Sino Biologicals (EphrinB-His)
The experiment can be described thus: Alpha assay EphB2-EB2. The class given is binding. How it is done: FIG. 5D depicts results from an alpha assay using EphB2-Fc or EphB4-Fc with EB2-His and increasing A20 concentrations to calculate IC50 determination (~10 μM, similar to that found in FIG. 5C).
Protein interaction assays were developed using soluble EphB ectodomains conjugated to Fc from R&D Systems (e.g., rat EphB1-Fc residues 18-538, which is 99.4% identical to human) and EphrinB ectodomains conjugated to His from Sino Biologicals (e.g., mouse EB2-His residues 18-232, which is 97.7% identical to human). Titrating concentrations of the EphB1-Fc ectodomain (or unconjugated Fc protein as negative control) was added with titrating amounts of the three different EphrinB ectodomains (EB1-His, EB2-His, or EB3-His) with 125 ng each of the Protein A donor, anti-6×-His acceptor beads, 2% DMSO, and 1× HiBlock buffer (all from PerkinElmer) in 384 well plates, and after 3 hr incubation at RT were read in an Envision Multilabel Reader 2102. […] No signal above background (<1,500) was detected for wells that contained an Fc control protein and the EB-His proteins or just the EphB1-Fc protein and no EB-His protein.
A20, E13, and other compounds from the top 32 hits were then characterized in pulldown assays. […]

For the next experiment, the target named is T2, EphB1-EB2 (Rattus norvegicus, UniProt P09759).
T2 construct: mouse (Mus musculus) EB2-His ectodomain (Sino Biologicals), ELISA
T2 sequence (P09759 18-538): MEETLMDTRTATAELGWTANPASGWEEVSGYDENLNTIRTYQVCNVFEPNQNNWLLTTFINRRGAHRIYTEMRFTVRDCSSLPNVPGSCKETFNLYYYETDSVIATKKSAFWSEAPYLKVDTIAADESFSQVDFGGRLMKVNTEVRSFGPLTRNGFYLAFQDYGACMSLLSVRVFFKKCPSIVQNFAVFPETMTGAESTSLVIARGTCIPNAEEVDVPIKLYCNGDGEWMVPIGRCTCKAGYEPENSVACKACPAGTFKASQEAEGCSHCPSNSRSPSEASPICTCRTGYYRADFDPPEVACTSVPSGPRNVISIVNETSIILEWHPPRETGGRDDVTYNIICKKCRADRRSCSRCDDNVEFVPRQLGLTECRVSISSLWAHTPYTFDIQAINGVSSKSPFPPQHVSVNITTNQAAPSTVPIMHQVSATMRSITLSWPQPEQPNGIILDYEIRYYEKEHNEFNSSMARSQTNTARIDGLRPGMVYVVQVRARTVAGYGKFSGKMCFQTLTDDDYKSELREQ
The experiment can be described thus: ELISA EB2-His binding to immobilized EphB1-Fc. On the set-up: species or system mouse EB2. The following applies: 5 μM. On the procedure:
The 32 hits were then subjected to ELISA in which EphB1-Fc was first immobilized in 96 well Protein A plates, then soluble EB2-His was added with hit compound in triplicate, again at 5 μM. After 2 hr at RT to allow EB2-His binding to EphB1-Fc, wells were washed, incubated with nickel-activated horseradish peroxidase (HisProbe-HRP) to detect bound EB2-His protein, washed, and then incubated with ELISA Pico Chemiluminescent Substrate (both from Thermo-Fisher) before being read in a luminometer. A single-protein counter ELISA using the dual-tagged EphB2-His-Fc ectodomain protein was also run. […] For simplicity, we call this compound A20.

Another experiment has as its target T3, EphrinB1-EphB1 (Homo sapiens, UniProt P54762).
T3 sequence (P54762 18-540 limits assumed): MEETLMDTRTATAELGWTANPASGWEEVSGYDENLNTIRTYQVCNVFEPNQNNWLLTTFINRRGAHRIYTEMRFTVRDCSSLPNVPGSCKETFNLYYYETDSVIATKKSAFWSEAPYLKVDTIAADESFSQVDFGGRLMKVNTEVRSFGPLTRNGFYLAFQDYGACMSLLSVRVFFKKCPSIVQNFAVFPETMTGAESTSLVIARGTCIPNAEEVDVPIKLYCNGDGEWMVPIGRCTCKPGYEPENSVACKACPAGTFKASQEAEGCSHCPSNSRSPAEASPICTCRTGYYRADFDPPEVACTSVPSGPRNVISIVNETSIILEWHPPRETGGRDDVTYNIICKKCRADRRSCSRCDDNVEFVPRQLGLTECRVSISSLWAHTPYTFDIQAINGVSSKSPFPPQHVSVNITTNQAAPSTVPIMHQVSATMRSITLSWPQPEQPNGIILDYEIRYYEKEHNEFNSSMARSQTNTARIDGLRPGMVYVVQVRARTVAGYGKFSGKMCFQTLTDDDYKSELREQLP
The experiment can be described thus: Octet, immobilized human EphrinB1 binding to human EphB1. How it is done: Studies were conducted to confirm that A20 chemicals can effectively target the human Eph/Ephrin proteins. Octet system was used to first characterize the biophysical interactions of the human B class Eph and Ephrin proteins, and then was tested to assess how A20 may disrupt the interactions. Since the human and rodent proteins are highly conserved, and essentially identical, with EphB2 sharing 99.5% identity between human and mouse, with only 5 of ~1,000 amino acids different, any species-specific differences were not anticipated. Therefore, commercially available human EphrinB1-Fc (EB1), EphrinB2-Fc (EB2), and EphrinB3-Fc (EB3) ectodomain proteins were sparsely immobilized onto biosensors and then exposed to 50 nM of soluble human EphB1-His, EphB2-His, and EphB4-His ectodomains for 800 sec association and 1,000 sec dissociation steps with a total of nine different interactions analyzed. In the absence of A20 chemical, the immobilized human EphrinB proteins bound to their appropriate human EphB target proteins; with EphrinB1 only bound EphB1 and EphB2, EphrinB2 bound all three EphB1, EphB2, and EphB4, and EphrinB3 only bound EphB1 and EphB2 (FIG. 19A-19B).
Addition of compound also altered dissociation kinetics. […] This is referred to as the “unsurmountable” component of the Eph-Ephrin interaction (FIG. 21C). Additionally, AUC data was graphed for these runs (FIG. 21D). […] For EB2-EphB4, the dimer:tetramer ratio was 83:8 in the presence of A20 and was not much different from the no compound control run because it is already a strong dimer-driven interaction. […] A similar though more muted effect of A20 on tetramer accumulation was also observed for the other interactions of immobilized human EphrinB binding to soluble human EphB1 and EphB2 ectodomains (FIG. 22). The inhibitory effect of A20 is strongest on the EB2-EphB2 interaction with absolute IC50 reaching 1 μM, followed by the EB2-EphB1 interaction with absolute IC50-10 μM. […]
In general terms: BLI is a label-free optical method that tracks binding on a fibre tip over time.

T1 sequence (P54763 19-543 limits assumed): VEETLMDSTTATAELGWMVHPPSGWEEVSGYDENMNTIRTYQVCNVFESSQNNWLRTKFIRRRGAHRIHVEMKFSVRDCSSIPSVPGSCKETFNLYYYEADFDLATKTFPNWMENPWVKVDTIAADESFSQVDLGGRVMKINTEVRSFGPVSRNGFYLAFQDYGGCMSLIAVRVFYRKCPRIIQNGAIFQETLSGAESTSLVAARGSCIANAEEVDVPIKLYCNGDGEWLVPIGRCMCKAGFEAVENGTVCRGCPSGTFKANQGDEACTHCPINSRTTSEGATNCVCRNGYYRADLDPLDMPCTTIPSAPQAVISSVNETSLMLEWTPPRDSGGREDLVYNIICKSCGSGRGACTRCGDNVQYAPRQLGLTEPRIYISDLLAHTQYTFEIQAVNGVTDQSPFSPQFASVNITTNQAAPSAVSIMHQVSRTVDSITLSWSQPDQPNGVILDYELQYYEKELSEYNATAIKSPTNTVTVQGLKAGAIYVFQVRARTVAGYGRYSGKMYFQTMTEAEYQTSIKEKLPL

Usually IC50 stands for the concentration that inhibits the measured activity by half. A lower IC50 goes with greater potency. On to `Oc1c(Br)cc(CN2CCOCC2)c2cccnc12` [Compound 5, 7-bromo-5-(morpholinomethyl)quinolin-8-ol], for which, at EphB2-Fc with EB2-His, the IC50 was approximately 10 µM. At EphB1-EB2, the “ELISA signal” value is reported as “reduced signal in the two-protein ELISA”. In addition, the “reduction of tetramer formation” value on EphrinB1-EphB1 (EB1-EphB1, A20) was found to be 15%. In addition, on EphrinB1-EphB1 (EphB1/EphB2 with EB1 and EB3, species not given), the “antagonism of EphrinB1/EphrinB3 binding” value was “can also antagonize EphB1/EphB2 proteins from binding to EphrinB1 (EB1) and EphrinB3 (EB3) proteins”. Besides, the IC (maximum) at EphrinB1-EphB1 (read-out: concentration producing maximum inhibition) came to 1 µM.
